# In US20200062738A1, “ANTI-CANCER STEMNESS DRUGS” (Development Center for Biotechnology, priority 2017, published 2020):
# Legend:
# MCL-1 = MCL-1 protein expression by western blot in H1975 cells; format: cell-based, human; settings: for MCL-1 protein expression: 10 μM, 6 h, western blot; for inhibition of MCL-1 expression, dose dependence: different concentrations, western blot (#44: 6 h)
# Method: (§1) The abilities of compounds of the invention to inhibit BMI-1/MCl-1 expressions were assayed with cell cultures. BMI-1 and MCL-1 are overexpressed in many cancers, such as lung cancer cell line H1975. Therefore, cancer cells that overexpress BMI-1/MCL-1 provide a convenient platform for assaying BMI-1/MCL-1 inhibition.
# (§2) After drug treatments, cells were washed twice with PBS, scraped, and resuspended in RIPA buffer containing protease inhibitors (20 mM Tris-HCl pH 7.5, 150 mM NaCl, 1 mM Na2EDTA, 1 mM EGTA, 1% NP-40, 1% sodium deoxycholate, 2.5 mM sodium pyrophosphate, 1 mM b-glycerophosphate, 1 mM Na3VO4, 1 μg/ml leupeptin). Cell lysate was sonicated for 5-10 min, and centrifuged at 14000 rpm for 20 minutes at 4° C. The supernatant was collected, determined for protein concentrations, and stored at −80° C. before further use.
# (§3) BMI-1/MCL-1 expression levels may be assessed with western blot analysis. […] The denatured protein samples were then loaded in 10% Tris-Glycine SDS polyacrylamide gel for separating proteins. The power supply for the running condition was set at 80 V for running stacking gel and 100 V for separating gel, respectively. […] The power supply for the transfer condition was set at 300 mA, and the transfer was carried out on ice for 2.5 hours. The nitrocellulose membranes containing the denatured proteins were blocked with a solution containing 5% skim milk at room temperature for 1 hour.
# In addition, the membranes were also probed with antibodies against MCL-1 and tubulin. Tubulin functions as an internal control to assess the relative loadings in different lanes on the gel. Myeloid cell leukemia 1 (MCL1) is a pro-survival protein overexpressed in many cancers.
# BMI-1 = BMI-1 protein expression by western blot in H1975 cells; format: cell-based, human; settings: for BMI-1 protein expression: 10 μM, 6 h, western blot; for inhibition of BMI-1 expression, dose dependence: different concentrations, western blot (#44: 6 h)
# Method: as §1, §2, §3
# After blocking, the membranes were washed with TBS containing 0.1% Tween-20 (TBST) for 5 minutes. […] After washing with TBST (5 min×3), the membranes were incubated with the secondary antibody (HRP-conjugated anti-mouse IgG, Jackson ImmunoReserch LABORATORIES INC., 1:5000) at room temperature for 1 hour. After washing with TBST (5 min×5), the membranes were incubated with chemiluminescence regent for 1 minute and imaged with a Bioluminiscent imaging system (Biospectrum-AC w/Bio Chemi Camera, UVP).
# H1975-luc cells [1] = experiment: Orthotopic H1975-luc model, treatment starting 2 days after tumor implantation (FIG. 4); format: in vivo, mice; settings: for tumor-free rate: 3 mpk IV, 5 times/week
# Description: (§4) Mice were orthotopically implanted with H1975-luc cells (10^6 cells/mouse). On day 0 (defined as 2 days after tumor implantation), mice were given drug treatments for 4 weeks (5 times/week), and the tumor formations were followed by non-invasive imaging on days 14 and 28.
# (§5) The mouse cancer models were generated as described above. Orthotopic H1975-Luc model was described as previous study. BI-44 was administrated by IV injection through tail vein, 5 times/7 days, with the doses indicated on the figure. Gefitinib and Afatinib were administrated orally, 5 times/7 days, with the dose of 20 mpk (mg/Kg).
# as §4, with “In the first animal model, Mice” for “Mice”, “were started to receive” for “were given”, “on day” for “on days”
# BI-44 was administrated starting 2 days after orthotopic lung tumor implantation according to the administration scheme shown in FIG. 4A, and the tumor formations were evaluated via non-invasive bioluminescent imaging on days 14 and 28.
# H1975-Luc cells [2] = experiment: In vivo anti-tumor test, orthotopic H1975-Luc mouse tumor model (FIG. 3); parameters: species or system SCID mice; settings: 1 mpk IV tail vein, 5 times/7 days, 3 weeks
# Description: Mice were orthotopically implanted with H1975-luc cells (10^6 cells/mouse), and started to receive drug treatments for 3 weeks. The tumor growths were followed by non-invasive bioluminescent imaging, and quantified. […] Tarceva ([…]) was administrated orally (20 mpk, 5 times/7 days). N=5 to 7 for each group.
# The derivatives showing potent anti-BMI-1/MCL-1 effects, such as compounds #43-45 (BI-43-BI-45), were selected for further in vivo anti-tumor test. The in vivo mouse tumor model was established as described below. • 1. SCID mice (70 mice, about […]) were quarantined for one week before lung cancer cells are implanted into their chest cavities. • 2. Before implanting the cancer cells into the mouse chest cavities, the mice were anesthetized with gas anesthesia. The mice were placed in a transparent acrylic box of 20 cm×10 cm×10 cm, which was connected with a flexible tubing to an anesthesia machine and an oxygen tank. Then, an appropriate amount of anesthesia (Isoflurane) was introduced into the anesthesia machine and the valve is open. […] One week after intra-thoracic implant of cancer cells, a luminescence reagent (D-luciferin) was injected into the abdominal cavities of the mice. […]
# After establishment of the tumors in mice, the test compounds were administered at the indicated doses and the tumor sizes were monitored using bioluminescence. […]
# H1975-luc cells [3] = experiment: Orthotopic H1975-Luc model, treatment starting 3 weeks after tumor implantation (FIG. 5); format: in vivo, mice; settings: for tumor inhibition rate: day 21
# Description: (§6) Mice were orthotopically implanted with H1975-luc cells (10^6 cells/mouse). On day 0 (defined as 3 weeks after tumor implantation), mice were imaged and started to receive drug treatments for 3 weeks (5 times/week). The tumor growths were followed by non-invasive imaging weekly.
# as §5
# as §6, with “In the second model, BI-44 was administrated starting 3 weeks after tumor implantation (FIG. 5A) when all the mice contained defined luciferase signals in lungs. Then, tumor growths were followed for 3 weeks (FIG. 5A). Mice” for “Mice”, “H1975-Luc” for “H1975-luc”
structure (smiles),measurement,setting,value
O=C(Nc1cccc(Cl)c1)Nc1cccc(-c2cccc3cc[nH]c23)c1 [Compound 45],MCL-1 protein expression,MCL-1,significantly reduced
same,BMI-1 protein expression,BMI-1,significantly reduced
"CN(C)C/C=C/C(=O)Nc1cc2c(Nc3ccc(F)c(Cl)c3)ncnc2cc1O[C@H]1CCOC1 [Afatinib, reference compound]",tumor inhibition rate as compared to control,"H1975-luc cells [1]; Afatinib 20 mpk orally, day 28",around 80%
COc1cc(Br)c(Nc2nc(-c3c(C)nc4ncccn34)cs2)c(Br)c1 [Compound 43],MCL-1 protein expression,MCL-1,significantly reduced
same,BMI-1 protein expression,BMI-1,significantly reduced
"CCc1ccc(C(=O)Nc2cccc(-c3cccc4cc[nH]c34)c2)cc1 [Compound 44, N-(3-(1H-indol-7-yl)phenyl)-4-ethylbenzamide]",MCL-1 protein expression,MCL-1,significantly reduced
same,"inhibition of MCL-1 expression, dose dependence",MCL-1,inhibits the expressions of BMI-1 and MCL-1 in a dose-dependent manner
same,"inhibition of MCL-1 expression, dose dependence",MCL-1; listed as #44,effectively inhibited the expressions of BMI-1 and MCL-1 at sub-μM concentrations
same,tumor-free rate,H1975-luc cells [1]; day 14,62.5%
same,tumor-free rate,H1975-luc cells [1]; day 28,37.5%
same,tumor inhibition rate as compared to control,"H1975-luc cells [1]; BI-44 3 mpk IV, day 28",around 80%
same,bioluminescent intensities in mice lungs,"H1975-luc cells [1]; BI-44 3 mpk IV, days 14 and 28",significantly reduced bioluminescent intensities
same,BMI-1 protein expression,BMI-1,significantly reduced
same,"inhibition of BMI-1 expression, dose dependence",BMI-1,inhibits the expressions of BMI-1 and MCL-1 in a dose-dependent manner
same,"inhibition of BMI-1 expression, dose dependence",BMI-1; listed as #44,effectively inhibited the expressions of BMI-1 and MCL-1 at sub-μM concentrations
same,anti-tumor growth effects (bioluminescence),H1975-Luc cells [2],most significant anti-tumor growth effects
same,tumor inhibition rate,H1975-luc cells [3]; 3 mpk IV,around 90%
same,tumor inhibition rate,H1975-luc cells [3]; 9 mpk IV,around 90%
same,tumor growth inhibition,"H1975-luc cells [3]; IV 5 times/week for 3 weeks, 1, 3, 9 mpk",significantly inhibited tumor growth in a dose-dependent manner
